Like-named read-outs stand apart in the source and are kept apart here.
Columns and labels:
[1] = molecular target: T1, M1 muscarinic receptor (Homo sapiens, UniProt P11229); test: Functional mobilization of intracellular calcium (FLIPR, Fluo-3), M1-CHO cells; type: cell-based; settings: for Emax: 100% efficacy is the maximum response obtained with the Carbachol control, read-out: M1 Efficacy
T1 construct: expressed in transfected cells; host or cells: CHO cells (M1-CHO, under zeocin and G418 selection)
T1 sequence (P11229 1-460): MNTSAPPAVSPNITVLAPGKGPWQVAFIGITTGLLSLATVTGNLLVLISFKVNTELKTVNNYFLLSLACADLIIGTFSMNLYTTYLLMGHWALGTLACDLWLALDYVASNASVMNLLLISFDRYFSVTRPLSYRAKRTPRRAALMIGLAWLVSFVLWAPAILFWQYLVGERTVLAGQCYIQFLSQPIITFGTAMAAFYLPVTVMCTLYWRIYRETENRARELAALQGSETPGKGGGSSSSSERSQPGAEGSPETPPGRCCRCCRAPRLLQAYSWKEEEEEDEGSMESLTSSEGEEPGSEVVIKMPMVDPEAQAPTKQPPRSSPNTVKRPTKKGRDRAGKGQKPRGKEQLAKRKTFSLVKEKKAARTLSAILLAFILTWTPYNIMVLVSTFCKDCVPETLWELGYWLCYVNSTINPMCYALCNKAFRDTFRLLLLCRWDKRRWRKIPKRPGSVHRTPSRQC
How it was run: (§1)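 CHO lines stably carrying the muscarinic subtype, dye-loaded with Fluo-3 at 37° C for 60-90 min, receive test compound in 0.5% DMSO. Agonist effects are read directly; antagonist effects against carbachol at EC80 after 15 min pre-incubation.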

[2] = molecular target: T2, M4 muscarinic receptor (Homo sapiens, UniProt P08173); test: Functional mobilization of intracellular calcium (FLIPR, Fluo-3), M4-CHO cells; type: cell-based; settings: for Emax: read-out: M4 Efficacy
T2 construct: expressed in transfected cells; host or cells: CHO cells (M4-CHO, under puromycin, zeocin and blasticidin selection)
T2 sequence (P08173 1-479): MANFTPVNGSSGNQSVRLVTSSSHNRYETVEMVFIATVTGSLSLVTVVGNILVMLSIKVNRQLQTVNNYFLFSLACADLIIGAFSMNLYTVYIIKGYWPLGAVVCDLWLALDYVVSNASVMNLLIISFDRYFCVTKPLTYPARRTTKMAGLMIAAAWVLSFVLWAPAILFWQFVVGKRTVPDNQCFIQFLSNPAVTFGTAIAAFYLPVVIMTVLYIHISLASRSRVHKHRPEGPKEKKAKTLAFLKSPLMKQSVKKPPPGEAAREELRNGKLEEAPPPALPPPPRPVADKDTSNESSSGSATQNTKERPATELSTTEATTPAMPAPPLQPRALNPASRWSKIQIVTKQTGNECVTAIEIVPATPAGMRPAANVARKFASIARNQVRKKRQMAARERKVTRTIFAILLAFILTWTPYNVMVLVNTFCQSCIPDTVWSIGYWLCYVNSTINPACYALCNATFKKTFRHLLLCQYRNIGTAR
How it was run: as §1

[3] = compound nos. 1-454, 100% efficacy is the maximum response obtained with the Carbachol control
[4] = compound nos. 1-454, M1-CHO cells, calcium mobilization
[5] = compound nos. 1-454, M4-CHO cells, calcium mobilization

## Fc1ccc2c(c1)C1(CCN(C[C@@H]3C[C@H]4CC[C@H]3O4)CC1)CN2 [compound 429]
[1]; compound nos. 1-454
  M1 Activity: ++ (activity was measured to be between 0.7 μM and 3.0 μM)
  Emax: < 65%
[2]; compound nos. 1-454
  M4 Activity: + (activity was measured to be greater than or equal to 4.0 μM)
[2]; [3]
  Emax: < 55%

## CCOC(=O)N1CCC(N2CCC3(CC2)CN(C(=O)C(C)(C)C)c2ccc(F)cc23)CC1 [compound 282]
[1]; compound nos. 1-454
  Emax: < 65%
[1]; [4]
  M1 Activity: +++ (activity was measured to be less than or equal to 0.7 μM)
[2]; [3]
  Emax: 55 to 70%
[2]; [5]
  M4 Activity: ++ (activity was measured to be between 0.1 μM and 4.0 μM)

## C#CCOC(=O)N1CCC(N2CCC3(CC2)CN(C(C)=O)c2ccc(C)cc23)CC1 [compound 81]
[1]; compound nos. 1-454
  Emax: < 65%
[1]; [4]
  M1 Activity: ++ (activity was measured to be between 0.7 μM and 3.0 μM)
[2]; [3]
  Emax: < 55%
[2]; [5]
  M4 Activity: + (activity was measured to be greater than or equal to 4.0 μM)

## CCOC(=O)N1CCC(N2CCC3(CC2)CN(C(=O)N(C)C)c2ccc(F)cc23)CC1 [compound 39]
[1]; compound nos. 1-454
  Emax: 65 to 85%
[1]; [4]
  M1 Activity: +++ (activity was measured to be less than or equal to 0.7 μM)
[2]; [3]
  Emax: > 70%
[2]; [5]
  M4 Activity: ++ (activity was measured to be between 0.1 μM and 4.0 μM)

## Clc1ccc2c(c1)C1(CCN(C3CCCCCC3)CC1)CN2 [compound 333]
[1]; compound nos. 1-454
  Emax: < 65%
[1]; [4]
  M1 Activity: + (activity was measured to be greater than or equal to 3.0 μM)
[2]; [3]
  Emax: < 55%
[2]; [5]
  M4 Activity: + (activity was measured to be greater than or equal to 4.0 μM)

## Clc1ccc2c(c1)C1(CCN(C3CCCCC3)CC1)CN2 [compound 155]
[1]; compound nos. 1-454
  Emax: > 85%
[1]; [4]
  M1 Activity: +++ (activity was measured to be less than or equal to 0.7 μM)
[2]; [3]
  Emax: > 70%
[2]; [5]
  M4 Activity: + (activity was measured to be greater than or equal to 4.0 μM)

## CN(C)C(=O)N1CC2(CCN(C3CCN(c4cnccn4)CC3)CC2)c2cc(F)ccc21 [compound 444]
[1]; compound nos. 1-454
  M1 Activity: +++ (activity was measured to be less than or equal to 0.7 μM)
  Emax: 65 to 85%
[2]; compound nos. 1-454
  M4 Activity: +++ (activity was measured to be less than or equal to 0.1 μM)
[2]; [3]
  Emax: 55 to 70%

## COC(=O)N1CC2(CCN(C3CC4CCC(C3)N4C(=O)OC)CC2)c2cc(F)ccc21 (stereo not drawn) [compound 235]
[1]; compound nos. 1-454
  Emax: 65 to 85%
[1]; [4]
  M1 Activity: ++ (activity was measured to be between 0.7 μM and 3.0 μM)
[2]; [3]
  Emax: 55 to 70%
[2]; [5]
  M4 Activity: + (activity was measured to be greater than or equal to 4.0 μM)

## CCC1CCC(N2CCC3(CC2)C[C@H](NC(C)=O)c2ccccc23)CC1 (stereo partly drawn) [compound 367]
[1]; compound nos. 1-454
  Emax: < 65%
[1]; [4]
  M1 Activity: + (activity was measured to be greater than or equal to 3.0 μM)
[2]; [3]
  Emax: < 55%
[2]; [5]
  M4 Activity: + (activity was measured to be greater than or equal to 4.0 μM)

## Fc1ccc2c(c1)C1(CCN(C[C@H]3C[C@H]4CC[C@H]3C4)CC1)CO2 [compound 207]
[1]; compound nos. 1-454
  Emax: 65 to 85%
[1]; [4]
  M1 Activity: ++ (activity was measured to be between 0.7 μM and 3.0 μM)
[2]; [3]
  Emax: < 55%
[2]; [5]
  M4 Activity: + (activity was measured to be greater than or equal to 4.0 μM)

## CC(C)OC(=O)N1C2CCC1CC(N1CCC3(CC1)CN(C(=O)OC1CCC1)c1ccc(F)cc13)C2 (stereo not drawn) [compound 166]
[1]; compound nos. 1-454
  Emax: > 85%
[1]; [4]
  M1 Activity: +++ (activity was measured to be less than or equal to 0.7 μM)
[2]; [3]
  Emax: > 70%
[2]; [5]
  M4 Activity: + (activity was measured to be greater than or equal to 4.0 μM)

## CCCC1CCC(N2CCC3(CC2)CNc2ccc(F)cc23)CC1 (stereo not drawn) [compound 328]
[1]; compound nos. 1-454
  Emax: < 65%
[1]; [4]
  M1 Activity: ++ (activity was measured to be between 0.7 μM and 3.0 μM)
[2]; [3]
  Emax: 55 to 70%
[2]; [5]
  M4 Activity: + (activity was measured to be greater than or equal to 4.0 μM)

## CCOC(=O)N1C2CCC1CC(N1CCC3(CC1)CN(S(=O)(=O)c1c(C)noc1C)c1ccc(F)cc13)C2 (stereo not drawn) [compound 89]
[1]; compound nos. 1-454
  Emax: 65 to 85%
[1]; [4]
  M1 Activity: +++ (activity was measured to be less than or equal to 0.7 μM)
[2]; [3]
  Emax: < 55%
[2]; [5]
  M4 Activity: ++ (activity was measured to be between 0.1 μM and 4.0 μM)

## Cc1nsc(N2CCC(N3CCC4(CC3)CN(C(=O)N(C)C)c3ccccc34)CC2)n1 [compound 458]
[1]; compound nos. 455-509
  Emax: > 100%
[1]; compounds 455-509
  M1 Activity: +++ (activity was measured to be less than or equal to 2.0 μM)
[2]; compound nos. 455-509, 100% efficacy is the maximum response obtained with the Carbachol control
  Emax: > 100%
[2]; compounds 455-509
  M4 Activity: ++ (activity was measured to be between 2.0 μM and 5.0 μM)

## CCOC(=O)N1C2CCC1CC(N1CCC3(CC1)C(=O)Nc1ccccc13)C2 (stereo not drawn) [compound 199]
[1]; compound nos. 1-454
  Emax: 65 to 85%
[1]; [4]
  M1 Activity: ++ (activity was measured to be between 0.7 μM and 3.0 μM)
[2]; [3]
  Emax: < 55%
[2]; [5]
  M4 Activity: + (activity was measured to be greater than or equal to 4.0 μM)

## COc1ccccc1N1CCC(N2CCC3(CC2)CN(C(=O)N(C)C)c2ccc(F)cc23)CC1 [compound 440]
[1]; compound nos. 1-454
  M1 Activity: ++ (activity was measured to be between 0.7 μM and 3.0 μM)
  Emax: 65 to 85%
[2]; compound nos. 1-454
  M4 Activity: ++ (activity was measured to be between 0.1 μM and 4.0 μM)
[2]; [3]
  Emax: 55 to 70%

## CC(=O)N1CC2(CCN(C3CCN(C(=O)OC(C)C)CC3)CC2)c2cc(F)ccc21 [compound 269]
[1]; compound nos. 1-454
  Emax: 65 to 85%
[1]; [4]
  M1 Activity: +++ (activity was measured to be less than or equal to 0.7 μM)
[2]; [3]
  Emax: > 70%
[2]; [5]
  M4 Activity: +++ (activity was measured to be less than or equal to 0.1 μM)

## CCOC(=O)N1C2CCC1CC(N1CCC3(CC1)CN(C(=O)O[C@@H]1CCOC1)c1ccc(F)cc13)C2 (stereo partly drawn) [compound 344]
[1]; compound nos. 1-454
  Emax: 65 to 85%
[1]; [4]
  M1 Activity: +++ (activity was measured to be less than or equal to 0.7 μM)
[2]; [3]
  Emax: < 55%
[2]; [5]
  M4 Activity: ++ (activity was measured to be between 0.1 μM and 4.0 μM)

## CC(=O)NC1CC2(CCN(C[C@H]3C[C@H]4C=C[C@H]3C4)CC2)c2ccccc21 (stereo partly drawn) [compound 392]
[1]; compound nos. 1-454
  M1 Activity: +++ (activity was measured to be less than or equal to 0.7 μM)
[2]; compound nos. 1-454
  M4 Activity: + (activity was measured to be greater than or equal to 4.0 μM)
[2]; [3]
  M4 Efficacy: + (efficacy was calculated to be 55% or less)

## CC(=O)N1CC2(CCN(CC3CCOC3)CC2)c2cc(F)ccc21 (stereo not drawn) [compound 135]
[1]; compound nos. 1-454
  Emax: > 85%
[1]; [4]
  M1 Activity: +++ (activity was measured to be less than or equal to 0.7 μM)
[2]; [3]
  Emax: > 70%
[2]; [5]
  M4 Activity: ++ (activity was measured to be between 0.1 μM and 4.0 μM)

## CCCOC(=O)N1CCCC(N2CCC3(CC2)CN(C(C)=O)c2ccc(F)cc23)CC1 (stereo not drawn) [compound 266]
[1]; compound nos. 1-454
  Emax: < 65%
[1]; [4]
  M1 Activity: + (activity was measured to be greater than or equal to 3.0 μM)
[2]; [3]
  Emax: < 55%
[2]; [5]
  M4 Activity: + (activity was measured to be greater than or equal to 4.0 μM)

## CCOC(=O)N1CCC(N2CCC3(CC2)CN(C(=O)C2CCC2)c2ccc(F)cc23)CC1 [compound 254]
[1]; compound nos. 1-454
  Emax: 65 to 85%
[1]; [4]
  M1 Activity: + (activity was measured to be greater than or equal to 3.0 μM)
[2]; [3]
  Emax: 55 to 70%
[2]; [5]
  M4 Activity: + (activity was measured to be greater than or equal to 4.0 μM)
